Measured values from patent publication US20070274916A1, “Method for Identifying Compounds that Affect Expression of Tryptophan Hydroxylase Isoform 2” (priority 2003, published 2007).
Entries after “also recorded” stand apart in the source; their conditions may differ.

Test system: TPH2 mRNA
Assay: TPH2 mRNA levels in murine raphe slice preparation of ovariectomized female mice by real-time RT-PCR
Type: in vivo, mouse
Source text: Female mice (13 to 16 wks of age) were ovariectomized (C57BL/6s from Charles River; ER Knockout animals from Taconic). Animals were fed a soy-free rodent chow and allowed a minimum of one week to recuperate from surgery and shipping. […] Approximately six hours following the fourth dose, mice were deeply anesthetized with ketamine/xylazine and brains were removed from the skull, placed ventral side up in a mouse brain block on ice, and ice-cold razor blades were inserted into the block at 1 mm intervals. The caudal extent of the hypothalamus was used as an anatomical marker for the placement of the first razor blade, and 4 blades were placed in sequential slots, caudally. The four sections were examined and the two that encompassed the greatest extent of the dorsal raphe were placed in a tube containing […] (Ambion, Austin, Tex.) and placed at 4° C. overnight. Brain slices were removed from […] after 24 hours and stored at −80° C. in fresh tubes.
Two TPH2 primer and probe sets were generated for use in detecting TPH2 by real-time RT-PCR. Murine TPH2 forward primers were mTPH2-514F and mTPH2-1270F, their corresponding sequences are 5′-[…]-3′ (SEQ ID NO:7; corresponding to nucleotides 514 to 535 of the nucleotide sequence encoding TPH2) and 5′-[…]-3′ (SEQ ID NO:8; corresponding to nucleotides 1270 to 1290 of the nucleotide sequence encoding TPH2), respectively. The murine TPH2 reverse primers were mTPH2-585R and mTPH2-1344R, their corresponding sequences are 5′-[…]-3′ (SEQ ID NO:9; corresponding to nucleotides 567 to 585 of the nucleotide sequence encoding TPH2) and 5′-[…]-3′ (SEQ ID NO:10; corresponding to nucleotides 1324 to 1344 of the nucleotide sequence encoding TPH2), respectively. The murine TPH2 probes were mTPH2-565T and mTPH2-1292T, their corresponding sequences are: 5′-[…]-3′ (SEQ ID NO:11; corresponding to nucleotides 539 to 565 of the nucleotide sequence encoding TPH2) and 5′-[…]-3′ (SEQ ID NO:12; corresponding to nucleotides 1292 to 1317 of the nucleotide sequence encoding TPH2), respectively. The probes were labeled at the 5′ end with FAM and the 3′ end with TAMRA.
Isolation of total RNA from mouse raphe slices for real-time PCR analysis using the TAQMAN ABI PRISMS 7700 Detection System, Applied Biosystems, Foster City, Calif. was as follows. Samples were stored in […] at 4° C. overnight followed by removal of […] and storage at −80° C. until isolation of the total RNA (2 slices weigh 25 to 50 mg). Slices were removed from −80° C. and placed in 1.0 mL TRIZOL Reagent in FASTPREP processing tubes. Slices were homogenized with one pass at setting 6 for 30 seconds in FASTPREP 120 homogenizer using LYSING MATRIX D tubes with bead matrix followed by 20 seconds at setting 6 after all samples had been processed. Samples were set at room temperature for 5 minutes to allow for complete dissociation of nucleoprotein complexes followed by centrifugation of the samples at 12,000×g for 5 minutes at 4° C. Homogenates were transferred to 1.5 mL; microcentrifuge tubes and 100 μL BCP (Bromo-3-chloropropane) was added. Samples were vortexed for 15 seconds and set at room temperature for 2 to 3 minutes. Samples were centrifuged at 12,000×g for 15 minutes at 4° C. The aqueous layer was removed and placed in a new RNAse-free sterile 1.5 mL microcentrifuge tube. Five μL of 5 mg/μL glycogen was added to each sample and the samples were vortexed. Five hundred μL of isopropanol was added to each sample. The samples were vortexed for 15 seconds, set at room temperature 10 minutes, followed by centrifugation at 12,000×g for 15 minutes at 4° C. Supernatants were decanted and pellets washed with 500 μL ice cold 75% ethanol.

For `C[C@@H]1C[C@H]2[C@@H]3CCC4=CC(=O)C=C[C@]4(C)[C@@]3(F)[C@@H](O)C[C@]2(C)[C@@]1(O)C(=O)CO` [dexamethasone], the “reduction in TPH2 mRNA levels” value (0.1 mg/kg s.c. once daily for four days, FIG. 14) was 23%, the “reduction in TPH2 message levels” value (1 mg/kg once daily for four days, FIG. 14) was 30% and the “reduction in TPH2 mRNA levels” value (3 mg/kg s.c. once daily for four days, FIG. 14) was 44%. For the same molecule, the “reduction in TPH2 mRNA levels” value (dexamethasone 3 mg/kg once daily for four days, FIG. 9) was 40%.

With `C[C@]12CC[C@@H]3c4ccc(O)cc4CC[C@H]3[C@@H]1CC[C@@H]2O` [17β-estradiol] the “effect on expression of TPH2 mRNA in raphe slice” value (0.025 to 0.2 mpk s.c. once daily for four days, FIG. 4C) was “no apparent effect”.

`CC#C[C@]1(O)CC[C@H]2[C@@H]3CCC4=CC(=O)CCC4=C3[C@@H](c3ccc(N(C)C)cc3)C[C@@]21C` [mifepristone] was tested, and the “effect on TPH2 mRNA expression compared to vehicle” value (RU486 10 mpk once daily, TPH2-514 or TPH2-1270 primer/probe set, FIG. 7, 10 mg/kg) was “decrease; also recorded: significant reduction”, the “effect on TPH2 mRNA expression” value (RU486 20 mpk once daily, TPH2-514 primer/probe set, FIG. 8, 20 mg/kg) was “further reduction; also recorded: significant reduction” and the “glucocorticoid agonist/antagonist character shown by TPH2 mRNA expression” value (alone and mixed with dexamethasone, Example 2) was “mixed or partial agonist”. The “effect on the dexamethasone reduction of TPH2 mRNA levels” value (co-administered with 3 mg/kg dexamethasone, ovariectomized female mice, FIG. 9, 3 mg/kg) was “blocked; also recorded: antagonizes” and the “reduction in TPH2 mRNA levels” value (mifepristone alone, 20 mg/kg, FIG. 9) was 28%.
